Results published in PubChem BioAssay AID1963869 (Molecular Pharmacology Branch, DTP, NCI, 2024).

Tested on: KRAS patient-derived spheroids with HUVEC/MSC, viability
Test: Anticancer human tumor 323965-272-R-J2-PDC patient-derived pancreatic carcinoma cell line growth inhibition [KRAS2]
Settings: for viability, T/C: stronger effect = lower value
Outline: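 KRAS-mutant tumor cells were grown as spheroids with HUVEC endothelial cells and human MSCs as stroma. Targeted agents were tested alone and with KRAS pathway inhibitors. Doses started at or near clinical Cmax, or 10 microM, descending half-log.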

[1] = curve of first compound, second compound 0.1 µM
[2] = curve of first compound, second compound 0.316 µM
[3] = curve of first compound, second compound 1 µM
[4] = curve of first compound, second compound 3.16 µM
[5] = curve of first compound, second compound 10 µM
[6] = second compound 0.1 µM, first compound 0.000316 µM
[7] = second compound 0.1 µM, first compound 0.001 µM
[8] = second compound 0.1 µM, first compound 0.00316 µM
[9] = second compound 0.1 µM, first compound 0.01 µM
[10] = second compound 0.1 µM, first compound 0.0316 µM
[11] = second compound 0.1 µM, first compound 0.1 µM
[12] = second compound 0.316 µM, first compound 0.000316 µM
[13] = second compound 0.316 µM, first compound 0.001 µM
[14] = second compound 0.316 µM, first compound 0.00316 µM
[15] = second compound 0.316 µM, first compound 0.01 µM
[16] = second compound 0.316 µM, first compound 0.0316 µM
[17] = second compound 0.316 µM, first compound 0.1 µM
[18] = second compound 1 µM, first compound 0.000316 µM
[19] = second compound 1 µM, first compound 0.001 µM
[20] = second compound 1 µM, first compound 0.00316 µM
[21] = second compound 1 µM, first compound 0.01 µM
[22] = second compound 1 µM, first compound 0.0316 µM
[23] = second compound 1 µM, first compound 0.1 µM
[24] = second compound 3.16 µM, first compound 0.000316 µM
[25] = second compound 3.16 µM, first compound 0.001 µM
[26] = second compound 3.16 µM, first compound 0.00316 µM
[27] = second compound 3.16 µM, first compound 0.01 µM
[28] = second compound 3.16 µM, first compound 0.0316 µM
[29] = second compound 3.16 µM, first compound 0.1 µM
[30] = second compound 10 µM, first compound 0.000316 µM
[31] = second compound 10 µM, first compound 0.001 µM
[32] = second compound 10 µM, first compound 0.00316 µM
[33] = second compound 10 µM, first compound 0.01 µM
[34] = second compound 10 µM, first compound 0.0316 µM
[35] = second compound 10 µM, first compound 0.1 µM
[36] = second compound 0.1 µM, first compound 0.316 µM
[37] = second compound 0.1 µM, first compound 1 µM
[38] = second compound 0.1 µM, first compound 3.16 µM
[39] = second compound 0.1 µM, first compound 10 µM
[40] = second compound 0.316 µM, first compound 0.316 µM
[41] = second compound 0.316 µM, first compound 1 µM
[42] = second compound 0.316 µM, first compound 3.16 µM
[43] = second compound 0.316 µM, first compound 10 µM
[44] = second compound 1 µM, first compound 0.316 µM
[45] = second compound 1 µM, first compound 1 µM
[46] = second compound 1 µM, first compound 3.16 µM
[47] = second compound 1 µM, first compound 10 µM
[48] = second compound 3.16 µM, first compound 0.316 µM
[49] = second compound 3.16 µM, first compound 1 µM
[50] = second compound 3.16 µM, first compound 3.16 µM
[51] = second compound 3.16 µM, first compound 10 µM
[52] = second compound 10 µM, first compound 0.316 µM
[53] = second compound 10 µM, first compound 1 µM
[54] = second compound 10 µM, first compound 3.16 µM
[55] = second compound 10 µM, first compound 10 µM
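Note: spheroids exposed to agents for 7 days.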
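Throughout, for viability, T/C: 100% = DMSO vehicle control viability.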

Structure (SMILES): CN(C)C/C=C/C(=O)Nc1cc2c(Nc3ccc(F)c(Cl)c3)ncnc2cc1O[C@H]1CCOC1 + CC1OCC2(CCN(c3cnc(Sc4ccnc(N)c4Cl)c(N)n3)CC2)C1N
- IC50 [1]: > 100 nM
- IC50 [2]: 0.979 nM
- IC50 [3]: > 100 nM
- IC50 [4]: < 0.316 nM
- IC50 [5]: > 100 nM
- viability, T/C [6]: 68.4%
- viability, T/C [7]: 75.9%
- viability, T/C [8]: 65.4%
- viability, T/C [9]: 57.8%
- viability, T/C [10]: 57.7%
- viability, T/C [11]: 58.6%
- viability, T/C [12]: 63%
- viability, T/C [13]: 49%
- viability, T/C [14]: 48.1%
- viability, T/C [15]: 38.1%
- viability, T/C [16]: 41.1%
- viability, T/C [17]: 44.6%
- viability, T/C [18]: 96.4%
- viability, T/C [19]: 95.8%
- viability, T/C [20]: 78.5%
- viability, T/C [21]: 75.2%
- viability, T/C [22]: 64.6%
- viability, T/C [23]: 63.3%
- viability, T/C [24]: 39%
- viability, T/C [25]: 33%
- viability, T/C [26]: 27.4%
- viability, T/C [27]: 27.7%
- viability, T/C [28]: 28.6%
- viability, T/C [29]: 34.7%
- viability, T/C [30]: 107%
- viability, T/C [31]: 96.9%
- viability, T/C [32]: 70.5%
- viability, T/C [33]: 56%
- viability, T/C [34]: 59.8%
- viability, T/C [35]: 55.9%

Structure (SMILES): CC1(C)CCC(CN2CCN(c3ccc(C(=O)NS(=O)(=O)c4ccc(NCC5CCOCC5)c([N+](=O)[O-])c4)c(Oc4cnc5[nH]ccc5c4)c3)CC2)=C(c2ccc(Cl)cc2)C1 + C=CC(=O)N1CCN(c2nc(OCC3CCCN3C)nc3c2CCN(c2cccc4cccc(C)c24)C3)CC1CC#N
- IC50 (curve of first compound, second compound 0.0316 µM): 1380 nM
- IC50 [1]: 1360 nM
- IC50 [2]: 1120 nM
- IC50 [3]: 1030 nM
- IC50 [4]: < 31.6 nM
- viability, T/C (second compound 0.0316 µM, first compound 0.0316 µM): 65.2%
- viability, T/C (second compound 0.0316 µM, first compound 0.1 µM): 69.2%
- viability, T/C (second compound 0.0316 µM, first compound 0.316 µM): 67.2%
- viability, T/C (second compound 0.0316 µM, first compound 1 µM): 66.6%
- viability, T/C (second compound 0.0316 µM, first compound 3.16 µM): 6.91%
- viability, T/C (second compound 0.0316 µM, first compound 10 µM): 1.68%
- viability, T/C [10]: 68.2%
- viability, T/C [11]: 67.1%
- viability, T/C [36]: 60.1%
- viability, T/C [37]: 67.6%
- viability, T/C [38]: 7.16%
- viability, T/C [39]: 1.62%
- viability, T/C [16]: 59.6%
- viability, T/C [17]: 61.6%
- viability, T/C [40]: 61.6%
- viability, T/C [41]: 54.9%
- viability, T/C [42]: 3.92%
- viability, T/C [43]: 2.34%
- viability, T/C [22]: 62.1%
- viability, T/C [23]: 61.9%
- viability, T/C [44]: 55.6%
- viability, T/C [45]: 51.2%
- viability, T/C [46]: 2.41%
- viability, T/C [47]: 0.74%
- viability, T/C [28]: 7.81%
- viability, T/C [29]: 6.48%
- viability, T/C [48]: 3.08%
- viability, T/C [49]: 0.59%
- viability, T/C [50]: 0.43%
- viability, T/C [51]: 0.18%

Structure (SMILES): COc1cc2nccc(Oc3ccc(NC(=O)C4(C(=O)Nc5ccc(F)cc5)CC4)cc3)c2cc1OC + CNCc1ccccc1-c1csc(C(C)Nc2nc(C)nc3cc(OC)c(OC)cc23)c1
- IC50 [1]: > 10000 nM
- IC50 [2]: > 10000 nM
- IC50 [3]: > 10000 nM
- IC50 [4]: 4240 nM
- IC50 [5]: < 31.6 nM
- viability, T/C [10]: 91.7%
- viability, T/C [11]: 99.3%
- viability, T/C [36]: 110%
- viability, T/C [37]: 101%
- viability, T/C [38]: 85.2%
- viability, T/C [39]: 87.2%
- viability, T/C [16]: 87.2%
- viability, T/C [17]: 88.7%
- viability, T/C [40]: 100%
- viability, T/C [41]: 93.2%
- viability, T/C [42]: 91.4%
- viability, T/C [43]: 82%
- viability, T/C [22]: 105%
- viability, T/C [23]: 99%
- viability, T/C [44]: 102%
- viability, T/C [45]: 101%
- viability, T/C [46]: 92.6%
- viability, T/C [47]: 72.7%
- viability, T/C [28]: 95.4%
- viability, T/C [29]: 91.8%
- viability, T/C [48]: 92.2%
- viability, T/C [49]: 91.6%
- viability, T/C [50]: 66.5%
- viability, T/C [51]: 1.54%
- viability, T/C [34]: 0.33%
- viability, T/C [35]: 0.3%
- viability, T/C [52]: 0.27%
- viability, T/C [53]: 0.75%
- viability, T/C [54]: 0.33%
- viability, T/C [55]: 0.34%

Structure (SMILES): Cn1ncnc1[C@H]1c2n[nH]c(=O)c3cc(F)cc(c23)N[C@@H]1c1ccc(F)cc1 + C=CC(=O)N1CCN(c2nc(=O)n(-c3c(C)ccnc3C(C)C)c3nc(-c4c(O)cccc4F)c(F)cc23)C(C)C1
- IC50 [1]: > 100 nM
- IC50 [2]: > 100 nM
- IC50 [3]: > 100 nM
- IC50 [4]: > 100 nM
- IC50 [5]: 23.7 nM
- viability, T/C [6]: 59.7%
- viability, T/C [7]: 65.8%
- viability, T/C [8]: 58.8%
- viability, T/C [9]: 57.8%
- viability, T/C [10]: 58.9%
- viability, T/C [11]: 55.7%
- viability, T/C [12]: 63%
- viability, T/C [13]: 63.2%
- viability, T/C [14]: 61.2%
- viability, T/C [15]: 55%
- viability, T/C [16]: 64%
- viability, T/C [17]: 57.4%
- viability, T/C [18]: 72.5%
- viability, T/C [19]: 64.2%
- viability, T/C [20]: 68.3%
- viability, T/C [21]: 58.7%
- viability, T/C [22]: 63.9%
- viability, T/C [23]: 57%
- viability, T/C [24]: 63.6%
- viability, T/C [25]: 65.6%
- viability, T/C [26]: 63.5%
- viability, T/C [27]: 64.7%
- viability, T/C [28]: 67.3%
- viability, T/C [29]: 54.6%
- viability, T/C [30]: 58.8%
- viability, T/C [31]: 62.7%
- viability, T/C [32]: 57.4%
- viability, T/C [33]: 50.4%
- viability, T/C [34]: 50.9%
- viability, T/C [35]: 41.2%

Structure (SMILES): CC(C)NCC(C(=O)N1CCN(c2ncnc3c2C(C)CC3O)CC1)c1ccc(Cl)cc1 (configuration not stated) + C=CC(=O)N1CCN(c2nc(=O)n(-c3c(C)ccnc3C(C)C)c3nc(-c4c(O)cccc4F)c(F)cc23)C(C)C1
- IC50 [1]: 175 nM
- IC50 [2]: 80.4 nM
- IC50 [3]: 159 nM
- IC50 [4]: 53.5 nM
- IC50 [5]: < 31.6 nM
- viability, T/C [10]: 62.4%
- viability, T/C [11]: 56.3%
- viability, T/C [36]: 43.5%
- viability, T/C [37]: 32.4%
- viability, T/C [38]: 27.1%
- viability, T/C [39]: 23.8%
- viability, T/C [16]: 56.8%
- viability, T/C [17]: 49.2%
- viability, T/C [40]: 40.2%
- viability, T/C [41]: 33%
- viability, T/C [42]: 26%
- viability, T/C [43]: 22.6%
- viability, T/C [22]: 61.2%
- viability, T/C [23]: 55%
- viability, T/C [44]: 42.3%
- viability, T/C [45]: 29.8%
- viability, T/C [46]: 26.4%
- viability, T/C [47]: 27.7%
- viability, T/C [28]: 52.1%
- viability, T/C [29]: 47.3%
- viability, T/C [48]: 37.8%
- viability, T/C [49]: 28.3%
- viability, T/C [50]: 26.9%
- viability, T/C [51]: 27.4%
- viability, T/C [34]: 42.8%
- viability, T/C [35]: 49.7%
- viability, T/C [52]: 30.5%
- viability, T/C [53]: 21.5%
- viability, T/C [54]: 22.9%
- viability, T/C [55]: 18%

Structure (SMILES): C=CC(=O)N1CCN(c2nc(OCC3CCCN3C)nc3c2CCN(c2cccc4cccc(C)c24)C3)CC1CC#N (configuration not stated)
- viability, T/C (compound 0.0316 µM): 70.1% [middle of 17 runs]
- viability, T/C (compound 0.1 µM): 60.4% [middle of 17 runs]
- viability, T/C (compound 1 µM): 57.9% [middle of 17 runs]
- IC50 (compound alone, run of 08/26/2021): 1.07 µM [middle of 5 runs]
- IC50 (compound alone, run of 09/02/2021): 1.12 µM [middle of 6 runs]

Structure (SMILES): O=C(c1cc(Cc2n[nH]c(=O)c3ccccc23)ccc1F)N1CCN(C(=O)C2CC2)CC1
- viability, T/C (compound 0.0316 µM): 102% [middle of 5 runs]
- viability, T/C (compound 0.1 µM): 102% [middle of 5 runs]
- viability, T/C (compound 0.316 µM): 96.4% [middle of 5 runs]
- viability, T/C (compound 1 µM): 100% [middle of 5 runs]
- viability, T/C (compound 3.16 µM): 92.1% [middle of 5 runs]
- viability, T/C (compound 10 µM): 59.7% [middle of 5 runs]
- IC50 (curve of compound): > 10000 nM
